US12338218B2, “Crystal form of benzimidazole-2-one compound, solvate thereof, crystal form of solvate thereof, and preparation method thereof” (MEDSHINE DISCOVERY INC., priority 2019, dated 2025)
Read-outs that look alike come from different tables or passages of the source.

Assays:
Format in all cases: physicochemical
[1] = Stability assay of crystal form A in different solvents (XRPD after 2 weeks)
Procedure: 17 aliquots of crystal form A of compound 1 were weighed (about 15 mg per aliquot), and an appropriate amount of a single or mixed solvent in the Table below was added, respectively. The suspension was stirred at room temperature or 50° C. for 2 weeks. Solids were collected by centrifugation, and detected by XRPD for the crystal form status.

[2] = Hygroscopicity of crystal form A (dynamic vapor sorption)
Procedure: SEM Advantage-1 Dynamic Vapor Sorption Apparatus.
10-30 mg of crystal form A of compound 1 was weighed and placed in a DVS sample pan for assaying.

[3] = Solid stability assay at high temperature, high humidity and strong light
Procedure: Method for Determining Content Disclosed Herein
Instrument model: Agilent 1260 high performance liquid chromatograph
Detailed parameters of chromatographic conditions were as follows:
Column temperature: 35° C.
Detection wavelength: 230 nm
Mobile phase A: 0.04% aqueous trifluoroacetic acid solution (V/V)
Mobile phase B: 100% acetonitrile
Diluent: acetonitrile: pure water=50:50 (V/V)
Probe Wash: acetonitrile: pure water=50:50 (V/V)
Gradient elution program: […]
According to “Guidelines for Stability Assay of APIs and Preparations” (Chinese Pharmacopoeia 2015 Edition, Volume IV, General Principles 9001), crystal form A of compound 1 was assayed for stability at high temperature (60° C., open), high humidity (room temperature/92.5% relative humidity, open) and strong light (5000±500 Lux, 90 μw/cm^2, sealed).
1.5 g of crystal form A of compound 1 was weighed, placed in an open watch glass, and spread into a thin layer. The samples placed under high temperature and high humidity conditions were placed in a desiccator for inspection, and samples were taken on the 5th, 10th, and 30th days for assaying. The assay results were compared with the initial assay results on day 0. The samples placed under strong light condition were covered with a quartz glass cover, and samples were taken on the 5th and 10th days for assaying. The assay results were compared with the initial assay results on day 0.

[4] = Solid stability assay under long-term condition (25° C./60% relative humidity, sealed)
Procedure: According to “Guidelines for Stability Assay of APIs and Preparations” (Chinese Pharmacopoeia 2015 Edition, Volume IV, General Principles 9001), crystal form A of compound 1 was assayed for stability under long-term condition (25° C./60% relative humidity, sealed).
(§1) 1.5 g of crystal form A of compound 1 was weighed and placed in a double-layer low-density polyethylene bag. Each layer of low-density polyethylene bag was sealed by buckling, respectively, and then the double-layer low-density polyethylene bag was placed in an aluminum foil bag and heat-sealed. Samples were taken on the 3rd and 6th months for assaying, and the assay results were compared with the initial assay results on day 0.

[5] = Solid stability assay under accelerated condition (40° C./75% relative humidity, sealed)
Procedure: According to “Guidelines for Stability Assay of APIs and Preparations” (Chinese Pharmacopoeia 2015 Edition, Volume IV, General Principles 9001), crystal form A of compound 1 was assayed for stability under accelerated condition of high temperature and high humidity (40° C./75% relative humidity, sealed).
as §1, with “on the 1st, 2nd, 3rd and” for “on the 3rd and”

[6] = High humidity (room temperature/92.5% relative humidity, open), Day 5
[7] = High humidity (room temperature/92.5% relative humidity, open), Day 10
[8] = High humidity (room temperature/92.5% relative humidity, open), Day 30
[9] = High temperature (60° C., open), Day 5
[10] = High temperature (60° C., open), Day 10
[11] = High temperature (60° C., open), Day 30
[12] = Strong light (5000 ± 500 Lux, 90 μw/cm^2, sealed), Day 5
[13] = Strong light (5000 ± 500 Lux, 90 μw/cm^2, sealed), Day 10
[14] = 25° C./60% relative humidity, sealed, Month 3
[15] = 25° C./60% relative humidity, sealed, Month 6
[16] = 40° C./75% relative humidity, sealed, Month 1
[17] = 40° C./75% relative humidity, sealed, Month 2
[18] = 40° C./75% relative humidity, sealed, Month 3
[19] = 40° C./75% relative humidity, sealed, Month 6

Status (after 2 weeks) ([1]; 1,4-Dioxane:n-heptane (1:1), 50° C.): Suspension
Status (after 2 weeks) ([1]; 2-Butanol:m-xylene (2:1), 50° C.): Suspension
Status (after 2 weeks) ([1]; 2-Methyltetrahydrofuran:n-octane (4:1), 50° C.): Suspension
Status (after 2 weeks) ([1]; Acetone:toluene (2:1), room temperature): Suspension
Status (after 2 weeks) ([1]; Acetonitrile:water (3:1), room temperature): Suspension
Status (after 2 weeks) ([1]; Dichloromethane:m-xylene (1:1), room temperature): Suspension
Status (after 2 weeks) ([1]; Dimethyl sulfoxide:water (2:1), 50° C.): Suspension
Status (after 2 weeks) ([1]; Ethanol:water (3:1), 50° C.): Suspension
Status (after 2 weeks) ([1]; Ethyl acetate:m-xylene (2:1), room temperature): Suspension
Status (after 2 weeks) ([1]; Isopropanol:water (85:5), room temperature): Suspension
Status (after 2 weeks) ([1]; Isopropanol:water (92:8), room temperature): Suspension
Status (after 2 weeks) ([1]; Isopropanol:water (95:5), room temperature): Suspension
Status (after 2 weeks) ([1]; Isopropanol:water (98:2), room temperature): Suspension
Status (after 2 weeks) ([1]; Methyl isobutyl ketone:n-hexane (2:1), 50° C.): Suspension
Status (after 2 weeks) ([1]; Methyl tert-butyl ether, room temperature): Suspension
Status (after 2 weeks) ([1]; Toluene, room temperature): Suspension
Status (after 2 weeks) ([1]; Water, room temperature): Suspension
stability in solvents (in words) ([1]; methyl tert-butyl ether, toluene, water, mixed solvent of alcohol and water): good stability
hygroscopicity (in words) [2]: low hygroscopicity
hygroscopic weight gain (ΔW) ([2]; DVS, 25° C. and 80% RH): 0.05%
hygroscopicity (in words) ([2]; listed as Crystal form A of compound 1): no or almost no hygroscopicity
Appearance ([3]; Day 0): White
Content ([3]; Day 0): 99.5%
Total impurity ([3]; Day 0): 0.33%
Appearance [3, 6]: White
Content [3, 6]: 101.1%
Total impurity [3, 6]: 0.32%
Appearance [3, 7]: White
Content [3, 7]: 100.3%
Total impurity [3, 7]: 0.32%
Appearance [3, 8]: White
Content [3, 8]: 99.5%
Total impurity [3, 8]: 0.33%
Appearance [3, 9]: White
Content [3, 9]: 101.3%
Total impurity [3, 9]: 0.32%
Appearance [3, 10]: White
Content [3, 10]: 100.3%
Total impurity [3, 10]: 0.32%
Appearance [3, 11]: White
Content [3, 11]: 99.2%
Total impurity [3, 11]: 0.33%
Appearance [3, 12]: White
Content [3, 12]: 100.4%
Total impurity [3, 12]: 0.33%
Appearance [3, 13]: White
Content [3, 13]: 100.7%
Total impurity [3, 13]: 0.33%
solid stability (in words) ([3]; high temperature, high humidity, or strong light condition): good stability
Appearance [4, 14]: White
Content [4, 14]: 99.0%
Total impurity [4, 14]: 0.34%
Appearance [4, 15]: White
Content [4, 15]: 99.5%
Total impurity [4, 15]: 0.33%
Appearance ([4]; Day 0): White
Content ([4]; Day 0): 99.5%
Total impurity ([4]; Day 0): 0.33%
solid stability (in words) ([4]; long-term condition of 25° C./60% relative humidity): good stability
Appearance [5, 16]: White
Content [5, 16]: 99.5%
Total impurity [5, 16]: 0.32%
Appearance [5, 17]: White
Content [5, 17]: 99.4%
Total impurity [5, 17]: 0.33%
Appearance [5, 18]: White
Content [5, 18]: 99.2%
Total impurity [5, 18]: 0.33%
Appearance [5, 19]: White
Content [5, 19]: 99.5%
Total impurity [5, 19]: 0.33%
Appearance ([5]; Day 0): White
Content ([5]; Day 0): 99.5%
Total impurity ([5]; Day 0): 0.33%
solid stability (in words) ([5]; accelerated condition of 40° C./75% relative humidity): good stability
Compound: CCOc1cc([C@@H](CS(C)(=O)=O)n2c(=O)[nH]c3cc(F)ccc32)ccc1OC [crystal form A of compound 1]
